Data taken from article PMC5958115, “A novel small molecule chaperone of rod opsin and its potential therapy for retinal degeneration” (Nature Communications, 2018).
Like-named read-outs stand apart in the source and are kept apart here.

How the values were obtained:
Assay type in all cases: cell-based
[1] = biological target: mouse P23H-opsin mutant (Mus musculus, UniProt P15409, P23H); test: β-Gal fragment complementation assay: rescue of P23H opsin transport from ER to plasma membrane, U2OS(PLC-EA/P23H-PK) cells; settings: for β-Gal fragment complementation assay Activity score (%) Max (fit) / Efficacy: 24 h, 5 µM 9-cis-retinal = 100%, from curve fitting; for dependence of activity on light: cells exposed to light vs dark; for Efficacy (%): normalized to 5 µM 9-cis-retinal
Excerpt: U2OS(PLC-EA/P23H-PK) cells. A U2OS stable cell line was generated by DiscoveRx, Inc. (Fremont, CA, USA) for the β-Gal fragment complementation assay used in the small-molecule HTS for rescue of P23H-opsin transport. U2OS cells that continually express P23H-PK and PLC-EA fusion proteins were generated. Briefly, this small subunit of β-Gal (PK fragment) was fused to the C-terminal of the mouse P23H-opsin mutant, while the large EA fragment, a subunit of β-Gal, was fused with PLC, a plasma membrane-anchored peptide. Both constructs were subcloned by DicoveRx, Inc. and transferred into U2OS cells by viral infections. Positive clones were selected under treatment with hygromycin and geneticin.
Briefly, U2OS(PLC-EA /P23H-PK) cells were suspended in assay medium at 3 × 10^5 cells mL^−1. The cell suspension was dispensed into 384-well plates (Greiner Bio-one, Monroe, NC, USA) at 20 µL per well, with a Multidrop dispenser (Thermo Scientific, Waltham, MA, USA). Plates with cells then were centrifuged at 200×g for 15 s before incubation at 37 °C with 5% CO2. Plates were removed 24 h later for treatment with tested compounds. A total of 248 plates containing 79,080 compounds from three small-molecule libraries were paired with an equal number of assay plates with cultured cells. Owing to a limited capacity, these plates were assayed in seven batches. An average of 56.3 nL of 10 mM compound in DMSO was dispensed into each well from column 3 to 22 of paired assay plates using a 50 nL 384-pintool system, such that the final concentration of each compound was 22.52 µM on average. […] Each assay plate was shaken for 5 s before further incubation at 37 °C with 5% CO2. After 24 h, assay plates were removed, and each well was incubated with 25 µL of 1× Gal-Screen assay buffer (1:24 substrate-buffer ratio). Assay plates were incubated in the dark for 60–90 min, and luminescence was read from each assay plate with an Envision microplate reader (PerkinElmer) during a 0.1 s per well integration time. The mean and s.d. of readouts in column 2 of each plate were calculated as Mean0% and SD0%, whereas the average and s.d. of readouts in column 23 were calculated as Mean100% and SD100%. Eq. 1: Activity scores (%) = (RLUcp − Mean0%)/(Mean100% − Mean0%) × 100%, where RLUcp is the relative luminescence unit derived for cells treated with a compound. Eq. 2: Z′-factor = 1–3 × (SD0% + SD100%)/(Mean100% − Mean0%)[32]; Eq. 3: signal-to-background (S/B) ratio = Mean100%/Mean0%. Activities of all tested compounds were registered with their compound ID by GeneData Screener (Genedata, Basel, Switzerland) and Pipeline Pilot software (Accelrys, San Diego, CA, USA). Hits, cherry-picked from a separate stock dose-dependent activity test, were selected with an activity score cutoff at 20%. Activity of each hit was tested again with the β-Gal fragment complementation assay in a 10-dose series with each dose tested in triplicate. The 10 doses tested were 80, 40, 20, 10, 5, 2.5, 1.25, 0.625, 0.313, and 0.156 µM. Dose-dependent curves of each hit compound were fitted with GeneData and Origin software.
Detailed synthetic steps are described in Supplementary Note and Supplementary Fig. 9. […] YC-002-YC-021 were purchased from commercial vendors including Enamine LLC (Monmouth Jct., NJ, USA), Matrix Scientific (Columbia, SC, USA) and Tokyo Chemical Industry Co., Ltd. (Portland, OR, USA). […] Activities of YC compounds were tested with the β-Gal fragment complementation assay, as described in a prior section. All YC compounds were tested at 10 doses, each in triplicate: 80, 40, 20, 10, 5, 2.5, 1.25, 0.625, 0.313, and 0.156 µM.

[2] = biological target: T1, P23H opsin (Mus musculus, UniProt P15409, P23H); test: Immunoblot of P23H opsin glycosylation in NIH3T3 cell lysates; design: key to Improved glycosylation: n = no; y = yes; settings: for Improved glycosylation: P23H opsin; for effect on glycosylation of P23H opsin (in words): immunoblot, PNGaseF, 10 µM YC-001, 5 µM 9-cis-retinal, 10 µM scriptaid
T1 construct: expressed in transfected cells
Procedure: NIH3T3-(P23H opsin/GFP) or NIH3T3-(WT-opsin/GFP) cells were seeded in a 48-well plate (Corning Costar) at 3.2 × 10^5 cells per well and incubated at 37 °C with 5% CO2 for 2 h. One hundred-µL of assay medium containing a compound at 5× its final concentration was added to each well. The plate was gently shaken for 5 s before further incubation at 37 °C with 5% CO2 for 24 h. The assay medium then was aspirated, and cells were lysed with 100 µL per well PBS containing 0.1% Triton X-100 and complete protease inhibitor cocktail (Roche, Basel, Switzerland) followed by sonication for 3 s. Protein concentrations were determined with the Bradford assay. For PNGaseF catalyzed deglycosylation, 3 µL of PNGaseF (1500 U, NEB) was added to the cell lysate and the mixture was incubated at room temperature for 1 h before immunoblotting. For NIH3T3-(P23H opsin/GFP) cells, 15 µg of total protein were loaded per well onto an SDS-polyacrylamide gel; whereas for NIH3T3-(WT-opsin/GFP) cells, 5 µg of total protein was loaded per well. Opsin protein was immunostained with 0.2 μg mL^−1 horseradish peroxidase-conjugated 1D4 anti-rhodopsin antibody. Band intensities were measured with ImageJ software (http://imagej.nih.gov/ij/; National the Institutes of Health, Bethesda, MD, USA) and normalized to a glyceraldehyde 3-phosphate dehydrogenase (GAPDH) loading control. Full scans of immunoblotted membranes are shown in Supplementary Fig. 8.

[3] = biological target: T2, rod opsin (Mus musculus, UniProt P15409); test: cAMP quantification assay in NIH3T3-(WT-opsin/GFP) cells with forskolin
T2 construct: expressed in transfected cells
Procedure: NIH3T3-(Opsin/GFP) and NIH3T3-(GFP) were plated in two 96-well plates at a density of 50,000 cells per well in 100 µL of DMEM medium containing 10% FBS and antibiotics. After 24 h, cells were washed with Krebs Ringer bicarbonate buffer containing glucose (KRBG), and incubated with KRBG buffer containing 100 µM cAMP specific phosphodiesterase inhibitor, Ro 20–1724 (Tocris, UK) at RT for 10 min. […] While one plate then was wrapped with aluminum foil, the second plate was exposed to regular room light. Both plates were kept in a cell culture incubator for 15 min at 37 °C in 5% CO2. Levels of accumulated cAMP were detected with the Catchpoint cAMP fluorescent assay kit (Molecular Devices, Sunnyvale, CA USA) and the fluorescence with excitation/emission at 530/590 nm was read with a Flexstation3 plate reader (Molecular Devices) as described in the manufacturer’s protocol.

[4] = 24 h preincubation, activity standardized to 5 µM 9-cis-retinal as 100%, Hill fit, read-out: β-Gal fragment complementation assay Activity score (%) EC50

Question: `O=C(CCCCCN1C(=O)c2cccc3cccc(c23)C1=O)NO` [Scriptaid, reference compound] was tested. Which “activity in rescuing P23H-opsin transport (in words)” value [1] did it give?
Answer: strong activity in rescuing P23H opsin transport

Question: And the “β-Gal fragment complementation assay Activity score (%) Max (fit) / Efficacy” value [1]?
Answer: 98.2%

Question: What about the EC50 [1, 4] of the same compound?
Answer: 3.09 µM

Question: What about the Improved glycosylation [2] of the same compound?
Answer: n

Question: And the “effect on glycosylation of P23H opsin (in words)” value (from here on “effect on glycosylation”) [2]?
Answer: does not affect the glycosylation

Question: For `O=C1OCC(c2ccc(Cl)s2)=C1c1cccs1` [YC-001], which “β-Gal fragment complementation assay Activity score (%) Max (fit) / Efficacy” value [1] is on record?
Answer: 310%

Question: What about the EC50 [1, 4] of the same compound?
Answer: 8.7 µM

Question: And the “efficacy, % of the control activity score” value ([1]; HTS hits, variability between experiments)?
Answer: 150–310%

Question: And the “effect of co-treatment with 9-cis-retinal” value ([1]; YC-001 dose series together with 5 µM 9-cis-retinal)?
Answer: No additive effect

Question: And the “dependence of activity on light” value [1]?
Answer: not affected

Question: And the “Efficacy (%)” value ([1]; modifications at C4)?
Answer: 248%

Question: And the EC50 ([1]; modifications linked to C3 of the furan-2(5H)-one ring, 10 doses 0.156-80 µM, read-out: Potency EC50)?
Answer: 8.39 µM

Question: What about the “Efficacy (%)” value ([1]; modifications of the furan-2(5H)-one ring) of the same compound?
Answer: 248%

Question: And the “Efficacy (%)” value ([1]; more than one site modified)?
Answer: 248%

Question: And the “time to maximum activity” value ([1]; time course, Fig. 1f)?
Answer: ≤ 15 h

Question: And the EC50 ([3]; YC-001 alone, dark or light, read-out: EC50, increase in cAMP levels)?
Answer: 8.22 µM

Question: And the EC50 ([3]; YC-001 with 1 μM 9-cis-retinal, under light, read-out: EC50, increase in cAMP levels)?
Answer: 29.9 µM

Question: And the Improved glycosylation [2]?
Answer: y

Question: What about the “effect on glycosylation” value [2] of the same compound?
Answer: improvement of glycosylation

Question: `CC1=C(/C=C/C(C)=C\C=C\C(C)=C\C=O)C(C)(C)CCC1` [9-cis-retinal, reference compound] was tested. Which “β-Gal fragment complementation assay Activity score (%) Max (fit) / Efficacy” value [1] did it give?
Answer: 159%

Question: And the EC50 [1, 4]?
Answer: 2.7 µM

Question: And the “dependence of activity on light” value [1]?
Answer: required that cells be incubated in the dark

Question: What about the “fold increase in the EC50 of 9-cis-retinal” value ([3]; 40 μM YC-001 co-treatment vs 9-cis-retinal alone) of the same compound?
Answer: 3 fold

Question: And the EC50 ([3]; 9-cis-retinal alone, under light, read-out: EC50, cAMP levels)?
Answer: 0.0757 µM

Question: What about the Improved glycosylation [2] of the same compound?
Answer: y

Question: And the “effect on glycosylation” value [2]?
Answer: improvement of glycosylation
